Results reported in patent publication US6303349A, “Esterase and methods for the production of optically active chroman compounds” (Mitsui Chemicals, Inc., priority 1997, dated 2001).

Test system: esterase from Pseudonocardia thermophila FERM BP-6275, homogeneously purified (Example 2)
Test: Effect of inhibitors on the purified esterase (remaining hydrolysis of racemic 6-aminochroman-3-acetic acid methyl ester)
Assay type: biochemical

Compound `O=S(=O)(F)Cc1ccccc1` [PMSF, phenylmethylsulfonyl fluoride] has a Relative activity (pH 7.2, 30 min, 100 µM) of 84 and a remaining enzyme activity (pH 7.2, 30 min, 100 µM) of 85%.
Compound `O=C(O)CN(CCN(CC(=O)O)CC(=O)O)CC(=O)O` [EDTA] has a Relative activity (pH 7.2, 30 min, 5000 µM) of 103.
`OC(CS)C(O)CS` (stereo not shown) [DTT] showed a Relative activity (inhibitor 0.1 mM, pre-incubated 30° C. 30 min, pH 7.2, reaction 55° C. 30 min, 100% = activity without inhibitors) of 102%.
